Test results reported in article PMC12470121, “Exploring the Novel Pancreatic Lipase-Inhibitory Peptides in Chlorella pyrenoidosa: Preparation, Purification, Identification, and Molecular Docking” (Foods, 2025).

Assays:
pancreatic lipase (PL) [1] = details: cited from earlier work
Text: Their mechanisms of action are closely linked to a high hydrophobic amino acid content. […] Among them, the pancreatic lipase activity of VWTP was better. […] (36.28% pan ...

[2] = system: intracellular triglyceride accumulation; details: ref [15]; cited from earlier work
Text: Their mechanisms of action are closely linked to a high hydrophobic amino acid content.

pancreatic lipase (PL) [3] = target: T1, pancreatic lipase (PL) (Sus scrofa, UniProt P00591); assay: PL inhibition assay (pNPP substrate); assay type: biochemical, porcine; details: CPPH-I at 8 mg/mL vs orlistat at 8 µg/mL; p > 0.05
T1 construct: Pancreatic lipase (derived from porcine pancreas); purchased Yuanye Biotech (Shanghai, China); host or cells: porcine pancreas
T1 sequence (P00591 1-450): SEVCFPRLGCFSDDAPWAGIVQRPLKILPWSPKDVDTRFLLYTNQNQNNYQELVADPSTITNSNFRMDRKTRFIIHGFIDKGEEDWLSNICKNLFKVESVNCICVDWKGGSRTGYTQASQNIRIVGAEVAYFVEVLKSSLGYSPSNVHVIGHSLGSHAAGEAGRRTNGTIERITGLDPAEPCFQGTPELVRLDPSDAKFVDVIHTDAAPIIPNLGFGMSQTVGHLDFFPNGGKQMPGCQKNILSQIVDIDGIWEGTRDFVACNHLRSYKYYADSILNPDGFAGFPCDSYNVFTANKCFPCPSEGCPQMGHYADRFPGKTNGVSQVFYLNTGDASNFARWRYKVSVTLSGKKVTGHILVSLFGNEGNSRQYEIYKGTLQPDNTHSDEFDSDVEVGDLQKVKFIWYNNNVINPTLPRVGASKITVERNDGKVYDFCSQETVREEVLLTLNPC
Experimental: To evaluate the inhibitory activity of the peptide fractions against PL, we conducted experiments according to Zhang et al.. Briefly, a mixture containing 120 μL of PL (10 mg/mL), 40 μL of peptide sample, and 80 μL of 50 mmol/L Tris-HCl buffer (pH 8.0) was incubated at 37 °C for 10 min. Then, 160 μL of 0.8 mmol/L p-nitrophenyl palmitate (pNPP) dissolved in dimethyl sulfoxide was added to initiate the reaction. After incubation at 37 °C for 20 min, the reaction was terminated by heating in a water bath at 100 °C for 5 min, followed by centrifugation to remove precipitated material. The absorbance of 200 μL of the supernatant was measured at 405 nm using a microplate reader (Infinite® 200 PRO, Tecan, Männedorf, Switzerland). For the control group, the peptide sample was replaced with an equal volume of buffer; in the blank group, the PL solution was replaced with buffer. Finally, the activity of PL was calculated using Equation (1). (1) PL activity%=[1−B−b/(A−a)]×100% where A denotes the absorbance of the control group, B the absorbance of the sample group, a the absorbance of the control blank group, and b the absorbance of the sample blank group.

[4] = target: T2, Pancreatic lipase (derived from porcine pancreas) (porcine) (UniProt P00591)
T2 sequence: T1 sequence (P00591 1-450)

## FYLGYCDY [peptide derived from rice bran fat extract (literature)]
Pancreatic lipase (PL) [1]; peptide from rice bran, ref [13], read-out: Pancreatic lipase inhibition IC50
  IC50: 470 ± 20 nM

## LLVVYPWTQR [peptide isolated from Chlorella (literature)]
Pancreatic lipase (PL) [1]; isolated from Chlorella, ref [15]
  Pancreatic lipase inhibition (in words): demonstrated efficacy in inhibiting pancreatic lipase
[2]
  Reduction of intracellular triglyceride accumulation (in words): reducing intracellular triglyceride accumulation

## SPFWNINAH [oat bran-derived peptide (literature)]
Pancreatic lipase (PL) [1]; oat bran-derived, ref [14]
  Pancreatic lipase-inhibitory activity (in words): activity indicates its promise as an anti-obesity drug

## CCCCCCCCCCC[C@@H](C[C@@H]1OC(=O)[C@H]1CCCCCC)OC(=O)[C@H](CC(C)C)NC=O [orlistat]
Pancreatic lipase (PL) [3]
  PL-I activity compared with orlistat: no significant difference between CPPH-I and orlistat

## FLSQPF
[4]
  PL inhibition rate at 2 mg/mL peptide (pNPP hydrolysis, absorbance at 405 nm): 11.5%

## IVGPF
[4]
  PL inhibition rate at 2 mg/mL peptide (pNPP hydrolysis, absorbance at 405 nm): 7.64%

## IPYPL
[4]
  PL inhibition rate at 2 mg/mL peptide (pNPP hydrolysis, absorbance at 405 nm): 4.49%
